Test results: patent publication US9862711B2, “Pyrazine derivatives as phosphatidylinositol 3-kinase inhibitors” (NOVARTIS AG, priority 2014, dated 2018)

Key:
[1] = biological target: PI 3-kinase alpha (Homo sapiens (Human), UniProt P42336); experiment: Kinase Glo Luminescent Kinase Assay (Assay A); format: biochemical; settings: 1 μM ATP, read-out: Assay A PI3Kα IC50
Description: Kinase Glo Luminescent Kinase Assay (Kglo) for PI 3-Kinase Alpha (A), Pb 3-Kinase Beta (B), Vps34 (C), PI 4-Kinase Beta (D)
The luminescence-based ATP detection reagent KinaseGlo was obtained from Promega, (Cat. No. V6714, Lot No. 236161) through Catalys, Wallisellen, Switzerland. L-alpha-phosphatidylinositol (PI, liver, bovine) was obtained from Avanti Polar Lipid (Cat. No. 840042C, Lot#LPI-274), Phosphatidylinositol-4,5-bisphosphate (PIP(4,5)2) was also obtained from Avanti Polar Lipid (Cat. No. 840046X). L-α-Phosphatidylserine (PS) was obtained from Avanti Polar Lipid (Cat. No. 840032C), n-Octylglucoside from Avanti Polar Lipid (Cat. No. 10634425001). Luminescence is a well established readout to determine ATP concentrations and can thus be used to follow the activity of many kinases regardless of their substrate. The Kinase Glo Luminescent Kinase Assay (Promega, Madison/WI, USA) is a homogeneous HTS method of measuring kinase activity by quantifying the amount of ATP remaining in solution following a kinase reaction.
50 nL of compound dilutions were dispensed onto black 384-well low volume Non Binding Styrene (NBS) plates (Costar Cat. No. NBS#3676). L-α-phosphatidylinositol (PI), provided as 10 mg/ml solution in methanol, was transferred into a glass tube and dried under a nitrogen beam. It was then resuspended in 3% OctylGlucoside (1-O-n-octyl-beta-D-glucopyranoside) by vortexing and stored at 4° C. 5 μL of a mix of PI/OctylGlucoside with the PI 3-kinase alpha and PI 3-kinase beta subtypes, or Vps34 or PI 4-kinase beta were added. Kinase reactions were started by the addition of 5 μl of an ATP-mix containing in a final volume 10 μL 10 mM TRIS-HCl pH 7.5, 3 mM MgCl2, 50 mM NaCl, 0.05% CHAPS, 1 mM DTT and 1 μM ATP at room temperature. Reactions were stopped with 10 μl of KinaseGlo and plates were read 10 mins later in a Synergy2 reader using an integration time of 0.1 seconds per well. 2.5 μM of NVP-BGT226 (1-(3-(trifluoromethyl)-4-(piperazin-1-yl)phenyl)-8-(6-methoxypyridin-3-yl)-3-methyl-1H-imidazo[4,5-c]quinolin-2(3H)-one) was added to the assay plates to generate the 100% inhibition of the kinase reaction, and the 0% inhibition was given by the solvent vehicle (90% DMSO in water). (1-(3-(trifluoromethyl)-4-(piperazin-1-yl)phenyl)-8-(6-methoxypyridin-3-yl)-3-methyl-1H-imidazo[4,5-c]quinolin-2(3H)-one) was used as a reference compound and included in all assay plates in the form of 16 dilution points in duplicate.
IC50 values of the percentage inhibition of each compound at 8 concentrations (10, 3.0, 1.0, 0.3, 0.1, 0.030, 0.010 and 0.003 μM) n=2 were derived by fitting a sigmoidal dose-response curve to a plot of assay readout over inhibitor concentration as described. All fits were performed with the program XLfit4 (ID Business Solutions, Guildford, UK).

[2] = tested on: IL-8-induced neutrophil shape change in human whole blood; experiment: Whole blood neutrophil shape change assay (Assay L); format: cell-based; settings: 2 nM IL-8, neutrophil shape change by flow cytometry, read-out: Assay L WBSC IC50
Procedure: Whole Blood Neutrophil Shape Change Assay (L)
A flow cytometry based method used to measure the inhibition of IL-8 (interleukin-8)-induced neutrophil shape change in human whole blood.
IL-8 was made up to 2 μM stocks in 0.1% bovine serum albumin/PBS and stored at −80° C. On the day IL-8 was diluted in PBS (phosphate buffered saline) 10 minutes before use. IL-8 was used at final concentration of 2 nM and a concentration range from […] to 200 nM for the donor dose response curve.
Assay fixative solution was prepared fresh each day from 10× concentrated CellFIX™ solution diluted 1:10 in sterile distilled water and then 1:4 with PBS. Assay fixative solution was kept on ice prior to use.
A 10× lysis buffer was prepared in advance by dissolving 20.75 g […] and 2.5 g KHCO3 in 250 ml sterile H2O. This 10× lysis buffer was filtered under sterile conditions and stored for up to two weeks at 4° C. On the day a 1× lysis solution was prepared with sterile distilled H2O and kept on ice prior to use.
The test compounds were prepared as 10 mM stock solutions in 100% DMSO and were stored at 4° C. Once in use for an assay 10 mM stock compounds were thawed and stored at RT protected from light. Compound dilutions were prepared fresh on the day. The first series of dilutions in 100% DMSO were done first thing in the morning. Only once blood had been collected and arrived in laboratory was the next set of dilutions into PBS carried out (1:10 PBS, 10% DMSO). This limited the exposure of diluted compound to plastic and made sure the exposure timing was consistent between assays. Compounds were added to the deep 96 well plates at 10× the final desired concentration (with addition of blood final [DMSO]=1%).
Table 3 illustrates the compound dilution series used in human whole blood neutrophil shape change assay.
On the day of running the assay, assay fixative buffer and 1× lysis solutions were prepared and stored on ice. Compound dilutions in 100% DMSO were prepared as described previously. Human whole blood was collected in K2 EDTA Vacutainers. Once blood was in the laboratory, compound dilutions into PBS were carried out as described previously and depicted in Table 1. 10 μl of 10× final compound concentration was added to appropriate wells of a deep 96-well plate except controls where 10 μl of 10% DMSO was added in place of compound, as outlined in the dilution series in Table 1. The outer wells of the deep well assay plate were filled with 1200 μl of sterile distilled H2O in an effort to limit edge effects (rows A1-H1, A1-A12, A12-H12). An IL-8 dose response was determined for each blood donor examined, to monitor the donor response to IL-8. At this step in assay preparation for the IL-8 dose response samples 10 μl of PBS was added to designated wells. In addition the assay window without DMSO was also assessed each day. For such samples at this step in assay preparation 10 μl of PBS was added in the place of 10% DMSO.
80 μl of whole blood was added to compound/10% DMSO/PBS and mixed once gently upon addition. Lids were placed on the 96 well plates and samples were incubated for 15 minutes at 37° C. in a water-bath.
Following the compound pre-incubation 10× final IL-8 was added to appropriate wells (10 μl of 20 nM working stock IL-8, final IL-8 concentration in blood=2 nM) and 10 μl of PBS was added to the un-stimulated controls. 10× final dose response range IL-8 was also added to designated wells (final concentration range on assay plate was 200 nM to 0.0005 nM, 1:5 serial dilution in PBS). The IL-8 and PBS were added to appropriate wells across all assay plates in the same sequence as the blood to compound addition. Once added to all assay plates, samples were mixed quickly once to ensure even distribution of IL-8. Samples were incubated for 5 minutes at 37° C. in a water-bath. Following the incubation sample plates were transferred to ice where 250 μl of chilled Assay Fixative Buffer was added promptly to all wells. […]

Chain of PI 3-kinase alpha (P42336 21-1068): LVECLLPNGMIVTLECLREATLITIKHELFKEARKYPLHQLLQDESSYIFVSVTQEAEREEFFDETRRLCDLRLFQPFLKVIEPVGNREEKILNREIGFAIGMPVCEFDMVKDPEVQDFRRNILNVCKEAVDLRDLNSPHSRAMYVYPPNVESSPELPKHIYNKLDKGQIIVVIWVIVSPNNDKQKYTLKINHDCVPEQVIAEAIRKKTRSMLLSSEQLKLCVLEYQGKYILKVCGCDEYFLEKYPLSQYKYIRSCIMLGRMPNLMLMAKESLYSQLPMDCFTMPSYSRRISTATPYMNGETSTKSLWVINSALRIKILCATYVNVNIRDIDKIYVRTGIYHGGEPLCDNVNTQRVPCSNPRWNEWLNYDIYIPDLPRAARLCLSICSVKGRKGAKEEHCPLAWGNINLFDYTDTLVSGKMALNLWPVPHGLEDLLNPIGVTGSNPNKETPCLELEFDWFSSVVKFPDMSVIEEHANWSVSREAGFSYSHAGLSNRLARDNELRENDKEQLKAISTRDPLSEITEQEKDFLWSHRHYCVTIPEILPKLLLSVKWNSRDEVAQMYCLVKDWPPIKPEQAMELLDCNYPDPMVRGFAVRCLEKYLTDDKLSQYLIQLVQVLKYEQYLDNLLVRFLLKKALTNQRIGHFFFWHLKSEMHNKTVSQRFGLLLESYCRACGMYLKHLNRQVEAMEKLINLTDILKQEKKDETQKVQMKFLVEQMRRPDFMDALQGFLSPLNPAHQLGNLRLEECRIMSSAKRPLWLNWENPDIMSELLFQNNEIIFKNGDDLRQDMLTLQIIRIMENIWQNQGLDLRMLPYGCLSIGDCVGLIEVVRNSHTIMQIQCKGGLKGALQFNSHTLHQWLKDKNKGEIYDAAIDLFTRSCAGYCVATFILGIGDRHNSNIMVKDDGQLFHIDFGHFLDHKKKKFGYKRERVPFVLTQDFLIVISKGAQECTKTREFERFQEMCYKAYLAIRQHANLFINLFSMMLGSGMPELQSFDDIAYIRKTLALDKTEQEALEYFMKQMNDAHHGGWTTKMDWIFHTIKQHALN

Structure (SMILES) | IC50 [1] [nM] | IC50 [2] [nM]
Cc1ncc(-c2cncc(-c3cc(S(=O)(=O)NCCCO)ccc3C)n2)s1 [Example 1, N-(3-Hydroxy-propyl)-4-methyl-3-[6-(2-methyl-thiazol-5-yl)-pyrazin-2-yl]-benzenesulfonamide] | 190 | 1330
Cc1ccc(S(=O)(=O)NCC2(C)COC2)cc1-c1cncc(-c2cn(C)nc2C)n1 [Example 4, Trans 3-[6-(1,3-Dimethyl-1H-pyrazol-4-yl)-pyrazin-2-yl]-4-methyl-N-(3-methyl-oxetan-3-ylmethyl)-benzenesulfonamide] | 60 | 548
Cc1ccc(S(=O)(=O)NCCC(C)(C)O)cc1-c1cncc(-c2cn(CCN3CCOCC3)nc2C)n1 [Example 10, N-(3-Hydroxy-3-methyl-butyl)-4-methyl-3-{6-[3-methyl-1-(2-morpholin-4-yl-ethyl)-1H-pyrazol-4-yl]-pyrazin-2-yl}-benzenesulfonamide] | 70 | 663
Cc1ccc(S(=O)(=O)NCC(C)(C)CO)cc1-c1cncc(-c2cn(C)nc2C)n1 [Example 8, 3-[6-(1,3-Dimethyl-1H-pyrazol-4-yl)-pyrazin-2-yl]-N-(3-hydroxy-2,2-dimethyl-propyl)-4-methyl-benzenesulfonamide] | 60 | 625

The next lines start with the values.

IC50 [1] [nM] | IC50 [2] [nM] | Structure (SMILES)
80 | 1080 | Cc1ccc(S(=O)(=O)NCCC(C)(C)O)cc1-c1cncc(-c2cn(C)nc2C)n1 [Example 3, 3-[6-(1,3-Dimethyl-1H-pyrazol-4-yl)-pyrazin-2-yl]-N-(3-hydroxy-3-methyl-butyl)-4-methyl-benzenesulfonamide]
400 | 752 | Cc1ccc(S(=O)(=O)N[C@H]2CC[C@H](O)CC2)cc1-c1cncc(-c2cccnc2)n1 [Example 11, Trans N-(4-Hydroxy-cyclohexyl)-4-methyl-3-(6-pyridin-3-yl-pyrazin-2-yl)-benzenesulfonamide]
260 | 598 | Cc1ccc(S(=O)(=O)NCCC(C)(C)O)cc1-c1cncc(-c2cnn(CCN3CCOCC3)c2)n1 [Example 9, N-(3-Hydroxy-3-methyl-butyl)-4-methyl-3-{6-[1-(2-morpholin-4-yl-ethyl)-1H-pyrazol-4-yl]-pyrazin-2-yl}-benzenesulfonamide]
50 | 266 | Cc1ccc(S(=O)(=O)NCC(C)(C)O)cc1-c1cncc(-c2cn(C)nc2C)n1 [Example 2, 3-[6-(1,3-Dimethyl-1H-pyrazol-4-yl)-pyrazin-2-yl]-N-(2-hydroxy-2-methyl-propyl)-4-methyl-benzenesulfonamide]
150 | 179 | Cc1ncc(-c2cncc(-c3cc(S(=O)(=O)N[C@H]4CC[C@H](O)CC4)ccc3C)n2)s1 [Example 5, Trans N-(4-Hydroxycyclohexyl)-4-methyl-3-(6-(2-methylthiazol-5-yl)pyrazin-2-yl)benzenesulfonamide]
